Laboratory results: patent US20260132129A1 (Genesis Therapeutics, Inc., priority 2022, published 2026)

Biological target: T1, PI3Kα H1047R (T47D cells) (Homo sapiens, UniProt P42336, H1047R)
T1 construct: endogenous in cells; host or cells: T47D cells
Assay: PI3Kα cellular assay: pAKT HTRF in T47D cells after EGF stimulation
Format: cell-based
Conditions: for IC50: T47D cells (PI3Kα H1047R), pAKT S473 HTRF
Method: SKBR3 or T47D cells are seeded in DMEM containing 10% FBS at 25k cells/well into 96-well cell culture format. Cells are incubated overnight at 37° C. in a 5% CO2 incubator and the following day cell media is aspirated, adherent cells are washed 1× with room temperature PBS prior to serum-free media application. Cells are returned to 37° C. 5% CO2 incubator and incubated a further 16 hrs. Compounds are added to serum starved adherent cells with a top dose of 10,000 nM and 3× multiple dose reductions for a minimum dose of 0.5 nM diluted in DMSO. Cell/compound incubation continues for 1 hr in a 37° C., 5% CO2 incubator prior to 10 minute PIK3CA stimulation with 20 ng/ml EGF. Cells treated with 0.1% DMSO and 20 ng/mL EGF are employed as negative control, cells treated with 10 uM Alpelisib and 20 ng/mL EGF are employed as a positive control. After 10 mins, plates are removed from incubator and cells are lysed with buffer and shaking 45 minutes. […] 384 well plate is left overnight at room temperature before reading HTRF on an Envision plate reader.
ND denotes value not determined with that assay for the specified compound; • for T47D (H1047R) selectivity over SKBR3 (WT): A denotes >20-fold; B denotes 20-fold≥value>5-fold; C denotes ≤5-fold. ND denotes value not determined with that assay for the specified compound; and • for T47D pAKT lipophilic efficiency (LiPE): A denotes >4; B denotes 4≥value>2; C denotes ≤2. ND denotes value not determined with that assay for the specified compound.

[1] = selectivity of T47D (H1047R) over SKBR3 (WT) pAKT IC50
[2] = selectivity T47D (H1047R) over SKBR3 (WT), pAKT HTRF
[3] = 1 hr compound, 20 ng/ml EGF 10 min

T1 sequence (P42336 whole entry H1047R): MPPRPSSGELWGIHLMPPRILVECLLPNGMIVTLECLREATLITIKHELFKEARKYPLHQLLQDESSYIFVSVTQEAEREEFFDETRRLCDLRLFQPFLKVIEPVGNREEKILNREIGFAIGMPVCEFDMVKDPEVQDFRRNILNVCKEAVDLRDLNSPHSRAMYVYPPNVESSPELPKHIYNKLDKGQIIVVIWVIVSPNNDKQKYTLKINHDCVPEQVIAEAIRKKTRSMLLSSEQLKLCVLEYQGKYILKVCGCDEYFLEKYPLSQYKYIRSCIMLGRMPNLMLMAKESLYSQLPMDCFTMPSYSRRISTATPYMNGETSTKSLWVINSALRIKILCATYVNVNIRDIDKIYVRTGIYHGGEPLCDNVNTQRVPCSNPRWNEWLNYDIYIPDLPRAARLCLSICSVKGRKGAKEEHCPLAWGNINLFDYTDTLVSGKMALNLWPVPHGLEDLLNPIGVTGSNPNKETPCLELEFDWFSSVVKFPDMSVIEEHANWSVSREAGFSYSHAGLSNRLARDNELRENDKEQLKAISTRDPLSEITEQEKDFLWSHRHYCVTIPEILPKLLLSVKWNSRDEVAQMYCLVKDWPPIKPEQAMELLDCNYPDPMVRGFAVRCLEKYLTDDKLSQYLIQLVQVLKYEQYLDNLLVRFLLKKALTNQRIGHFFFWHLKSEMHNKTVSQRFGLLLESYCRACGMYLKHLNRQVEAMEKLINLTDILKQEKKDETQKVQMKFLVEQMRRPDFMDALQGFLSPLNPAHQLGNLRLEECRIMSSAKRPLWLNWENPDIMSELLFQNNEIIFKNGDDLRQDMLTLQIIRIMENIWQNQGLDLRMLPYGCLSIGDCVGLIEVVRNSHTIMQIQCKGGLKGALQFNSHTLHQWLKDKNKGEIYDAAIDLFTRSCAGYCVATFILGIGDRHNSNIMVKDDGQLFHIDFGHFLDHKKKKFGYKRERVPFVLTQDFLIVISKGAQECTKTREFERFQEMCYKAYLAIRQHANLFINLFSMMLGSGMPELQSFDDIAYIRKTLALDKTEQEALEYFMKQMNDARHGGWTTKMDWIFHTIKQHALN
T1 sequence (P27986 whole entry partner): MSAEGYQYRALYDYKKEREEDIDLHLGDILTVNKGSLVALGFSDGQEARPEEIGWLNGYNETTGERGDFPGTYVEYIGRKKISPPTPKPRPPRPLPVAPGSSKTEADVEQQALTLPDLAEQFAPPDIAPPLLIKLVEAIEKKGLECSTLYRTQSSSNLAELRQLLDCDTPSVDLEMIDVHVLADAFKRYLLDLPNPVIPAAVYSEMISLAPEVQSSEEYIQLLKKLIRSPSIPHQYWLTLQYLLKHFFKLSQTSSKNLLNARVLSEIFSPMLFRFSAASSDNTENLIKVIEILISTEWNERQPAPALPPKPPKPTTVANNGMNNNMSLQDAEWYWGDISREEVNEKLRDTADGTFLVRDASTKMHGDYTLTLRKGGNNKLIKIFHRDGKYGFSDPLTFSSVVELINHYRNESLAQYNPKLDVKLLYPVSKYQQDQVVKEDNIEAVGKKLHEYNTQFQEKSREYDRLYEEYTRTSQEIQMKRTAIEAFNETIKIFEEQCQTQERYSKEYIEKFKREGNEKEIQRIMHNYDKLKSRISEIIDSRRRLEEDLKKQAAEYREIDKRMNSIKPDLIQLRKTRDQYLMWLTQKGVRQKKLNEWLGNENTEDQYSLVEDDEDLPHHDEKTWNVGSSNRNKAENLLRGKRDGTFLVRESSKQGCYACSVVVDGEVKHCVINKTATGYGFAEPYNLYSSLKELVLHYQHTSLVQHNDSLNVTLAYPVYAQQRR

SMILES | IC50 (EGF stimulation) | T47D pAKT S473 HTRF IC50 (H1047R): T47D (H1047R) selectivity over SKBR3 (WT) [1] | T47D pAKT S473 HTRF IC50 (H1047R): T47D (H1047R) selectivity over SKBR3 (WT) [2] | IC50 [3]
Cc1cc([C@@H](C)Nc2ccccc2C(=O)O)c2nc(-c3cccnc3)c(C)c(=O)n2c1 (single isomer, unassigned) [Compound 949] | < 0.1 µM | A (A denotes >20-fold) |  | 
Cc1cc([C@@H](C)Nc2ccccc2C(=O)O)c2nc(-c3cnc(C)c(Cl)c3)c(C)c(=O)n2c1 (single isomer, unassigned) [Compound 951] | < 0.1 µM | A (A denotes >20-fold) |  | 
Cc1cc([C@@H](C)Nc2ccccc2C(=O)O)c2nc(-c3ccnc(C4CC4)c3)c(C)c(=O)n2c1 (single isomer, unassigned) [Compound 953] | < 0.1 µM | A (A denotes >20-fold) |  | 
Cc1cc([C@@H](C)Nc2ccccc2C(=O)O)c2nc(-c3ccc(Cl)cc3)c(C)c(=O)n2c1 (single isomer, unassigned) [Compound 963] | < 0.1 µM | A (A denotes >20-fold) |  | 
Cc1cc([C@@H](C)Nc2ccccc2C(=O)O)c2nc(-c3ccc(Cl)cc3F)c(C)c(=O)n2c1 (single isomer, unassigned) [Compound 965] | < 0.1 µM | A (A denotes >20-fold) |  | 
Cc1cc([C@@H](C)Nc2ccccc2C(=O)O)c2nc(-c3cccc(C#N)c3)c(C)c(=O)n2c1 (single isomer, unassigned) [Compound 967] | < 0.1 µM | A (A denotes >20-fold) |  | 
Cc1cc([C@@H](C)Nc2ccccc2C(=O)O)c2nc(-c3cccc(F)c3)c(C)c(=O)n2c1 (single isomer, unassigned) [Compound 969] | < 0.1 µM | A (A denotes >20-fold) |  | 
Cc1cc([C@@H](C)Nc2ccccc2C(=O)O)c2nc(-c3cccc(C4CC4)c3)c(C)c(=O)n2c1 (single isomer, unassigned) [Compound 971] | < 0.1 µM | A (A denotes >20-fold) |  | 
Cc1cc([C@@H](C)Nc2ccccc2C(=O)O)c2nc(-c3ccc(C4CC4)nc3)c(C)c(=O)n2c1 (single isomer, unassigned) [Compound 973] | < 0.1 µM | A (A denotes >20-fold) |  | 
Cc1cc([C@@H](C)Nc2ccccc2C(=O)O)c2nc(-c3ccc(C#N)nc3)c(C)c(=O)n2c1 (single isomer, unassigned) [Compound 975] | < 0.1 µM | A (A denotes >20-fold) |  | 
Cc1cc([C@H](C)Nc2ccccc2C(=O)O)c2nc(-c3cnc(C#N)c(Cl)c3)c(C)c(=O)n2c1 (single isomer, unassigned) [Compound 978] | < 0.1 µM | A (A denotes >20-fold) |  | 
Cc1cc([C@H](C)Nc2ccccc2C(=O)O)c2nc(C3Cc4ccccc4C3)c(C3CC3)c(=O)n2c1 (single isomer, unassigned) [Compound 983] | 0.5 to 2 µM | B (B denotes 20-fold≥value>5-fold) |  | 
Cc1cc([C@@H](C)Nc2ccccc2C(=O)O)c2nc(OC3CCOCC3)c(C)c(=O)n2c1 (single isomer, unassigned) [Compound 1370] | > 2 µM |  | C (C denotes ≤5-fold) | 
Cc1cc([C@H](C)Nc2ccccc2C(=O)O)c2nc(OC3CCOCC3)c(C)c(=O)n2c1 (single isomer, unassigned) [Compound 1371] | < 0.1 µM |  | A (A denotes >20-fold) | 
Cc1cc([C@@H](C)Nc2cccc3onc(O)c23)c2nc(-c3cccc(F)c3)c(C)c(=O)n2c1 (single isomer, unassigned) [Compound 1374] | 0.1 to 0.5 µM |  | A (A denotes >20-fold) | 
Cc1cc([C@H](C)Oc2ccccc2C2(O)CS(=O)(=O)C2)c2nc(-c3cccc(F)c3)c(C)c(=O)n2c1 (single isomer, unassigned) [Compound 1393] | < 0.1 µM |  | A (A denotes >20-fold) | 
Cc1cc([C@@H](C)Nc2ccccc2C(=O)O)c2nc(N3CCCCC3)cc(=O)n2c1 [Compound 7] |  |  | A (A denotes >20-fold) | 0.1 to 0.5 µM
Cc1cc([C@H](C)Nc2ccccc2C(=O)O)c2nc(N3CCCCC3)cc(=O)n2c1 [Compound 8] |  |  | C (C denotes ≤5-fold) | > 2 µM
CC1=CN2C(=O)CC(N3CCOCC3)N=C2C(C(C)Nc2ccccc2)=C1 (stereo not shown) [Compound 47] |  |  | C (C denotes ≤5-fold) | > 2 µM
CCC(Nc1ccccc1C(=O)O)c1cc(C)cn2c(=O)cc(N3CCOCC3)nc12 (stereo not shown) [Compound 132] |  |  | C (C denotes ≤5-fold) | 0.5 to 2 µM
Cc1cc(C(C)Nc2ccccc2S(C)(=O)=O)c2nc(N3CCOCC3)cc(=O)n2c1 (stereo not shown) [Compound 134] |  |  | B (B denotes 20-fold≥value>5-fold) | 
Cc1cc(C(C)Nc2ccccc2C(=O)O)c2nc(N3CCS(=O)(=O)CC3)cc(=O)n2c1 (stereo not shown) [Compound 137] |  |  | C (C denotes ≤5-fold) | > 2 µM
Cc1cc([C@@H](C)Nc2ccccc2C(=O)O)c2nc(N3CCS(=O)(=O)CC3)cc(=O)n2c1 [Compound 138] |  |  | C (C denotes ≤5-fold) | > 2 µM
Cc1cc([C@H](C)Nc2ccccc2C(=O)O)c2nc(N3CCS(=O)(=O)CC3)cc(=O)n2c1 [Compound 139] |  |  | C (C denotes ≤5-fold) | > 2 µM
Cc1cc(C(C)Nc2ccccc2C(=O)O)c2nc(N3CCSCC3)cc(=O)n2c1 (stereo not shown) [Compound 140] |  |  | A (A denotes >20-fold) | 0.1 to 0.5 µM
Cc1cc(C(C)Nc2ccccc2C(=O)O)c2nc(-c3ccc[nH]c3=O)cc(=O)n2c1 (stereo not shown) [Compound 144] |  |  | C (C denotes ≤5-fold) | > 2 µM
Cc1cc(C(C)Nc2ccccc2C(=O)O)c2nc(-c3cnc(N)nc3)cc(=O)n2c1 (stereo not shown) [Compound 145] |  |  | B (B denotes 20-fold≥value>5-fold) | 0.5 to 2 µM
Cc1cc([C@@H](C)Nc2ccccc2C(N)=O)c2nc(N3CCOCC3)cc(=O)n2c1 [Compound 146] |  |  | C (C denotes ≤5-fold) | > 2 µM
